Assay results as given in the supplement of paper PMC11208160.

Test: recombinant barcode read abundance after kanamycin selection (control-corrected) (log10(CPM+1)); higher = more efficient recombination; sequences stand for … in AGTGCAGAGAAAATCGGCCAGTTTTCTCTGCCTGCAGTCCGCATGCCGT…AGATTTATGCAGCGGACTGCCTTTCTCCCAAAGTGATAAACCGGACAGTATCATGGACCGGTTTTCCCGGTAATCCGTATTTGCAAGGTTGGTTTCACT; site = the 11-nt target
In short: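 Targets were screened in pooled form in E. coli against IS621 bridge RNA target-binding loops. Recombination efficiency is based on barcode counts at recombinant junctions in counts per million, averaged and corrected for the control. Numbers are shown as log10(CPM+1), with duplicate plates on chloramphenicol/ampicillin LB agar (control) or chloramphenicol/ampicillin/kanamycin with 0.1 mM IPTG.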
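Note: IS621 recombinase and bridge RNA in Escherichia coli cells.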

Sequence | recombinant barcode read abundance (log10)
CTAGGAGCTTGGGTTCTAACCTGTTGCTA (site CTAGGAGCTCA) | 0.231
TTAGAGCCTTGGGTTCTAACCTGTTGCCT (site TTAGAGTCTAG) | 0.644
AATTTCTCTTGGGTTCTAACCTGTTGCCT (site AATTTCTCTAG) | 0.0321
GGATGCACTTGGGTTCTAACCTGTTGCCA (site GGATACACTTG) | 0.237
TAGAAGGCTTGGGTTCTAACCTGTTGCTA (site TAGAAGCCTTA) | 0.0194
CCAAGGGCTTGGGTTCTAACCTGTTGCCG (site CCAAGGGCTCA) | 0.0491
ACTGGTCCTTGGGTTCTAACCTGTTGCAG (site ACTGGTCCTCT) | 2.59
GCGGATCCTTGGGTTCTAACCTGTTGCCT (site GCGGATCCTAG) | 2.11
TTGGGCGCTTGGGTTCTAACCTGTTGCCT (site TTGGCCGCTAG) | 0.154
TATCCGACTTGGGTTCTAACCTGTTGCCT (site TATCCGACTGG) | 0.0369
AGATCATCTTGGGTTCTAACCTGTTGCTT (site AGATCATCTAA) | 0.278
GTATGAGCTTGGGTTCTAACCTGTTGCTG (site GTATGAGCTCA) | 1.51
GCGGCGACTTGGGTTCTAACCTGTTGCCT (site GCGGCGACTAG) | 0.891
TGGCAGACTTGGGTTCTAACCTGTTGCCT (site TGGCAGACTAG) | 0.215
GGATATCCTTGGGTTCTAACCTGTTGCTT (site CAGGTGACTCC) | 0
TGGTATACTTGGGTTCTAACCTGTTGCCT (site TGGTATCCTAG) | 0.0279
GTATGGACTTGGGTTCTAACCTGTTGCAA (site CATCAAGCTAG) | 0.138
CAACTAGCTTGGGTTCTAACCTGTTGCAT (site TTGTACACTGA) | 0.028
TGTAATGCTTGGGTTCTAACCTGTTGCCT (site TGTAATTCTAG) | 0.181
CGGTAATCTTGGGTTCTAACCTGTTGCTT (site CGGTAATCTAA) | 0.161
GCCAGCTCTTGGGTTCTAACCTGTTGCTG (site GCCAGCTCTCA) | 0.581
AAGTTGACTTGGGTTCTAACCTGTTGCCT (site AACTTGACTAG) | 0.248

Sequence | recombinant barcode read abundance (log10)
GTCGGGCCTTGGGTTCTAACCTGTTGCCT (site ATCGGGCCTAG) | 0.0962
GTGAGGACTTGGGTTCTAACCTGTTGCGT (site GTGCGGACTAC) | 0.236
TGTGCACCTTGGGTTCTAACCTGTTGCAC (site TGTGCTCCTCT) | 0.0746
TTGAGGACTTGGGTTCTAACCTGTTGCCT (site GTGAGGACTAG) | 0
TAGTGAGCTTGGGTTCTAACCTGTTGCCT (site TAGTGAGCTAG) | 1.37
ATACGGACTTGGGTTCTAACCTGTTGCTA (site ATACGGACTTA) | 2.04
CACAGCACTTGGGTTCTAACCTGTTGCCT (site CACACCACTAG) | 0.00856
CACCCTTCTTGGGTTCTAACCTGTTGCTC (site TCTGGCCCTAG) | 0.0488
ATCGGAGCTTGGGTTCTAACCTGTTGCCG (site ATCGGAGCTCT) | 0.123
AAGGTCACTTGGGTTCTAACCTGTTGCCT (site ATGGTCACTAG) | 0.361
TTGGAAGCTTGGGTTCTAACCTGTTGCCT (site TTGGGAGCTAG) | 0.541
TACGGCTCTTGGGTTCTAACCTGTTGCTT (site TACAGCTCTAA) | 0.297
TCTAAGTCTTGGGTTCTAACCTGTTGCCC (site TCTAAGTCTTG) | 0.00905
GAGAAATCTTGGGTTCTAACCTGTTGCCT (site GAGAAATCTAG) | 0.59
GAGAAGTCTTGGGTTCTAACCTGTTGCCT (site GAGAAGTCTAG) | 1.93
TATTTAGCTTGGGTTCTAACCTGTTGCGG (site ACCAACACTAA) | 0.0937
AGCCAGGCTTGGGTTCTAACCTGTTGCGG (site AGCCAGGCTCC) | 1.76
TATTATACTTGGGTTCTAACCTGTTGCCT (site TATTATACTAG) | 0.035
ACCGTACCTTGGGTTCTAACCTGTTGCCT (site ACCGTACCTAG) | 0.304
CGTGAACCTTGGGTTCTAACCTGTTGCGT (site CGTGAACCTAC) | 2.79
TAATCGCCTTGGGTTCTAACCTGTTGCCT (site TAATCGACTAG) | 0.122
TTAAGCTCTTGGGTTCTAACCTGTTGCCT (site ATAAGCTCTAG) | 0.125

Sequence | recombinant barcode read abundance (log10)
AGCGAGTCTTGGGTTCTAACCTGTTGCCT (site ATCGAGTCTAG) | 0.465
TCGCAGACTTGGGTTCTAACCTGTTGCAC (site TCGCAGACTGT) | 0.0284
AGTACAACTTGGGTTCTAACCTGTTGCCT (site AGGACAACTAG) | 0.0508
GGTCCAACTTGGGTTCTAACCTGTTGCCT (site GGTCAAACTAG) | 0.1
GATTATTCTTGGGTTCTAACCTGTTGCCT (site GATTATTCTAG) | 0
AGCTGGGCTTGGGTTCTAACCTGTTGCCT (site ATCTGGGCTAG) | 0.11
AGGCTGCCTTGGGTTCTAACCTGTTGCCT (site AGGCTGTCTAG) | 0.494
ATGGGCACTTGGGTTCTAACCTGTTGCCT (site ATAGGAACTAG) | 0.198
GCATCTACTTGGGTTCTAACCTGTTGCTA (site GCATCTACTTA) | 0.0861
CGTTCATCTTGGGTTCTAACCTGTTGCCT (site CGATCATCTAG) | 0
CGTTCTACTTGGGTTCTAACCTGTTGCCT (site CGTTCGACTAG) | 0.0414
CGCCGTCCTTGGGTTCTAACCTGTTGCAT (site CGCCCTCCTAT) | 0.103
CGTGGGCCTTGGGTTCTAACCTGTTGCCT (site CCTGGGCCTAG) | 0.208
TAGCATACTTGGGTTCTAACCTGTTGCCT (site TAGCATACTAG) | 1.37
GTCATACCTTGGGTTCTAACCTGTTGCCT (site GTCATACCTAG) | 1.02
ACGCCGACTTGGGTTCTAACCTGTTGCCT (site ACGCCGACTAG) | 0.432
CTAGTGACTTGGGTTCTAACCTGTTGCGT (site CTAGTGACTGC) | 0.0977
TTCAAGACTTGGGTTCTAACCTGTTGCCT (site TTCAAGACTAG) | 0.681
GGGGACCCTTGGGTTCTAACCTGTTGCGA (site GGGGACCCTGC) | 0.247
ACTATGACTTGGGTTCTAACCTGTTGCTT (site GACTATCCTCG) | 0.0905
CGCGCAACTTGGGTTCTAACCTGTTGCCT (site CGCGTAACTAG) | 0.185
AGGAAGGCTTGGGTTCTAACCTGTTGCCA (site GACGTAACTCT) | 0.145

Sequence | recombinant barcode read abundance (log10)
GTCCTATCTTGGGTTCTAACCTGTTGCTA (site GTCCTATCTTA) | 0.656
GTACTCTCTTGGGTTCTAACCTGTTGCCA (site GAACTGTCTTG) | 0.143
AAGCACCCTTGGGTTCTAACCTGTTGCAG (site TAGCACTCTCT) | 0.311
GATTCTTCTTGGGTTCTAACCTGTTGCCT (site GGTTCTTCTAG) | 0.232
TGTCGGACTTGGGTTCTAACCTGTTGCAT (site TGTCGGACTGT) | 0.0199
ACGATTCCTTGGGTTCTAACCTGTTGCCT (site AGGATTCCTAG) | 0.101
CGTTAGACTTGGGTTCTAACCTGTTGCCT (site CGTTAGACTAG) | 0.469
TAGGATACTTGGGTTCTAACCTGTTGCAA (site TAGGATACTCT) | 0.401
CCAAGGGCTTGGGTTCTAACCTGTTGCCG (site CCAAGGGCTCT) | 0.33
TTCAATTCTTGGGTTCTAACCTGTTGCTT (site TTCAATTCTAA) | 0.0521
CGGTGAACTTGGGTTCTAACCTGTTGCCT (site CTGTGAACTAG) | 0.146
ACTTCGACTTGGGTTCTAACCTGTTGCCT (site AATTCGACTAG) | 0.0426
AGGAGAGCTTGGGTTCTAACCTGTTGCTT (site CTAGCGACTGT) | 0.0392
TATTATACTTGGGTTCTAACCTGTTGCCT (site TATTATACTAC) | 0.0157
GTGCGCTCTTGGGTTCTAACCTGTTGCGC (site GTGCGCTCTGC) | 0.145
TGCGGGTCTTGGGTTCTAACCTGTTGCCT (site TGCGGGTCTAG) | 0.702
AGTAAGCCTTGGGTTCTAACCTGTTGCCA (site AGTAAGCCTTG) | 0.33
ACCGTTCCTTGGGTTCTAACCTGTTGCCT (site ACCGTTCCTAG) | 0.78
CTCCGTACTTGGGTTCTAACCTGTTGCCG (site CTCCGTACTCG) | 0.13
CACAGCACTTGGGTTCTAACCTGTTGCCT (site CACAGCACTAG) | 1.44
